Tests used:
Assay type in all cases: in vivo, human
[1] = system: adult subjects with schizophrenia; test: PANSS total score, Clinical Study Three (6-week, olanzapine-referenced); settings: Olanzapine 15 mg, LOCF, ITT
Experimental: There were four treatment arms in this study, approximately 144 subjects per arm. […] After completing the Single-Blind Placebo Lead-in Period of at least three days, bifeprunox-treated subjects were titrated from 0.25 mg up to 20 mg/day or 30 mg/day according to a standardized titration scheme over a seven- or eight-day period, respectively. When the assigned dose was reached, subjects were maintained at that dose for the remainder of the six week treatment period. […] Subjects were hospitalized (if not already inpatients) after eligibility for study entry was verified, starting from the Screening Visit until at least 10 days after Baseline. Subjects could be hospitalized longer than 10 days if considered medically necessary by the Investigator. Rating scale assessments for efficacy and abnormal movement disorders were done weekly except for Week 5. Safety assessments were performed at Screening, during treatment and at the end of the study. Subject satisfaction with study medication was assessed at Week 6. Samples of whole blood were obtained at Weeks 2, 4, and 6 for determination of bifeprunox in plasma.
Test Product, Dose and Mode of Administration: Bifeprunox tablets, total daily dose 20 mg or 30 mg (one 20 mg tablet and one 10 mg tablet) administered orally using a once daily dosing regimen.

[2] = system: adult subjects with schizophrenia; test: Adverse events (TEAE, SAE, discontinuation, EPS-related TEAE, anticholinergic use), Clinical Study One
Experimental: METHODOLOGY: This was a randomized, double-blind, fixed-dose, placebo-controlled, risperidone-referenced, parallel group, multi-center study in adult subjects with schizophrenia. There were five treatment groups in this study. […] Study medication was administered once daily. After Baseline measurements were performed, the titration phase was begun. Bifeprunox treated subjects were titrated up to 5 mg, 10 mg or 20 mg according to a standardized titration schedule (Day 1: 0.125 mg, Day 2: 0.25 mg, Day 3: 0.5 mg, Day 4: 1.0 mg, Day 5: 2.0 mg, Day 6: 5.0 mg, Day 7: 10.0 mg, Day 8: 20 mg).

[3] = system: adult subjects with schizophrenia; test: PANSS responder rate, Clinical Study Two; settings: risperidone 6 mg
Experimental: Notable differences were also observed between the 30 mg bifeprunox group and placebo for the change from baseline to endpoint in PANSS general psychopathology subscale score, BPRS total score, BPRS psychosis cluster score, PANSS responder rate, and CGI-I responder rate. […] A CGI-I responder refers to a subject who was categorized as “very much improved” or “much improved” in the CGI Global Improvement scale at endpoint. […]
Subjects who completed this study had the option to continue in the long-term. […] Risperidone-treated subjects were titrated from 2 mg to 6 mg daily over a three-day period and were subsequently maintained at 6 mg/day for the remainder of the treatment period. […] Blood samples were also obtained at Screening/Baseline, Week 3, and Week 6 for clinical laboratory assessments. […]

Cc1cc2c(s1)Nc1ccccc1N=C2N1CCN(C)CC1 [Olanzapine, olanzapine, reference compound]
Change from Baseline in PANSS Total Score, Mean (SD) ([1]; Week 1): −9.3 (11.2)
Change from Baseline in PANSS Total Score, Median ([1]; Week 1): −6
Change from Baseline in PANSS Total Score, Mean (SD) ([1]; Week 2): −15.1 (13.6)
Change from Baseline in PANSS Total Score, Median ([1]; Week 2): −12
Change from Baseline in PANSS Total Score, Mean (SD) ([1]; Week 3): −19.3 (15.8)
Change from Baseline in PANSS Total Score, Median ([1]; Week 3): −18
Change from Baseline in PANSS Total Score, Mean (SD) ([1]; Week 4): −20.0 (16.5)
Change from Baseline in PANSS Total Score, Median ([1]; Week 4): −18
Change from Baseline in PANSS Total Score, Mean (SD) ([1]; Week 6/Endpoint): −22.0 (18.2)
Change from Baseline in PANSS Total Score, Median ([1]; Week 6/Endpoint): −21

Cc1nc2n(c(=O)c1CCN1CCC(c3noc4cc(F)ccc34)CC1)CCCC2 [Risperidone, risperidone, reference compound]
TEAE Akathisia, % ([2]; 6 mg, Safety Population): (5%)
TEAE Muscle Spasms, % ([2]; 6 mg, Safety Population): (2%)
TEAE Musculoskeletal Stiffness, % ([2]; 6 mg, Safety Population): (<1%)
TEAE Myalgia, % ([2]; 6 mg, Safety Population): (2%)
TEAE NERVOUS SYSTEM DISORDERS, % ([2]; 6 mg, Safety Population): (49%)
TEAE Neck Pain, % ([2]; 6 mg, Safety Population): (2%)
TEAE Neck Stiffness, % ([2]; 6 mg, Safety Population): (<1%)
TEAE Pain in Jaw, % ([2]; 6 mg, Safety Population): (<1%)
TEAE Pain in Limb, % ([2]; 6 mg, Safety Population): (2%)
Affect Lability, % ([2]; Risperidone 6 mg): (<1%)
Agitation, % ([2]; Risperidone 6 mg): (8%)
Alcoholic Hangover, % ([2]; Risperidone 6 mg): (<1%)
Anxiety Aggravated, % ([2]; Risperidone 6 mg): (3%)
Anxiety, % ([2]; Risperidone 6 mg): (6%)
DIZZINESS, % ([2]; Risperidone 6 mg): (5%)
DYSARTHRIA, % ([2]; Risperidone 6 mg): (2%)
Disturbance in Attention, % ([2]; Risperidone 6 mg): (<1%)
Drooling, % ([2]; Risperidone 6 mg): (2%)
Dystonia, % ([2]; Risperidone 6 mg): (4%)
EXTRAPYRAMIDAL DISORDER, % ([2]; Risperidone 6 mg): (3%)
Gait Feastinating, % ([2]; Risperidone 6 mg): (<1%)
Headache Nos, % ([2]; Risperidone 6 mg): (28%)
Hypoaesthesia, % ([2]; Risperidone 6 mg): (<1%)
Migraine Aggravated, % ([2]; Risperidone 6 mg): (<1%)
Oculogyric Crisis, % ([2]; Risperidone 6 mg): (<1%)
PARAESTHESIA, % ([2]; Risperidone 6 mg): (<1%)
PSYCHIATRIC DISORDERS, % ([2]; Risperidone 6 mg): (39%)
SEDATION, % ([2]; Risperidone 6 mg): (13%)
SOMNOLENCE, % ([2]; Risperidone 6 mg): (22%)
TREMOR, % ([2]; Risperidone 6 mg): (<1%)
incidence of aggravated schizophrenia NOS (SAE) ([2]; Risperidone 6 mg): 4%
subjects with at least one AE that led to discontinuation ([2]; Risperidone 6 mg): 14%
subjects with at least one SAE ([2]; Risperidone 6 mg): 16%
subjects with at least one TEAE ([2]; Risperidone 6 mg): 89%
suicide attempt ([2]; Risperidone 6 mg): no subjects
PANSS 20% responder rate ([3]; Endpoint LOCF): 54%
PANSS 30% responder rate ([3]; Endpoint LOCF): 31%
PANSS Responder at Endpoint, 30% Definition Responder, No ([3]; LOCF, ITT): 104 (69%) n (%)
PANSS Responder at Endpoint, 30% Definition Responder, Yes ([3]; LOCF, ITT): 47 (31%) n (%)
PANSS Responder at Week 6/Endpoint, 20% Definition, No ([3]; LOCF, ITT): 69 (46%) n (%)
PANSS Responder at Week 6/Endpoint, 20% Definition, Yes ([3]; LOCF, ITT): 78 (54%) n (%)

From patent US20090068290A1, “BIFEPRUNOX DOSES FOR TREATING SCHIZOPHRENIA” (priority 2006, published 2009)
